Calls of active or inactive are those of the source. The calls are words filed in the database; no cut-off is given here.
Experiments:
[1] = Protective activity against Naja kaouthia venom-induced mortality in Swiss albino mouse at 100 mmol, iv preincubated with venom for 1 hr followed by administration to mouse measured after 24 hrs relative to untreated control; type: functional
[2] = Protective activity against Daboia russellii venom-induced mortality in Swiss albino mouse at 100 mmol, iv administered immediately after venom injection measured after 24 hrs relative to untreated control; type: functional, Daboia russelii
[3] = Protective activity against Daboia russellii venom-induced hemorrhage in intradermally dosed Swiss albino mouse at 100 mmol assessed as hemorhagic lesion by measuring minimal […] dose preincubated with venom for 1 hr followed by administration to mouse measured after 24 hrs (reference value: 5 ug); type: functional, Daboia russelii
[4] = Protective activity against Daboia russellii venom-induced mortality in Swiss albino mouse at 100 mmol, iv preincubated with venom for 1 hr followed by administration to mouse measured after 24 hrs relative to untreated control; type: functional, Daboia russelii
[5] = Protective activity against Daboia russellii venom-induced hemorrhage in intradermally dosed Swiss albino mouse at 100 mmol assessed as hemorhagic lesion preincubated with venom for 1 hr followed by administration to mouse measured after 24 hrs relative to untreated control; type: functional, Daboia russelii
[6] = Protective activity against Daboia russellii venom-induced hemorrhage in Swiss albino mouse at 100 mmol, iv assessed as hemorhagic lesion administered immediately after venom injection measured after 24 hrs relative to untreated control; type: functional, Daboia russelii
[7] = (§1) Protective activity against Daboia russellii venom-induced hemorrhage in Swiss albino mouse at 100 mmol, iv assessed as hemorhagic lesion by measuring […] administered immediately after venom injection measured after 24 hrs (Rvb =5 ug); type: functional, Daboia russelii
[8] = (§2) Protective activity against Daboia russellii venom-induced mortality in Swiss albino mouse at 100 mmol, iv by measuring venom LD50 administered immediately after venom injection measured after 24 hrs (reference value: 2.28ug); type: functional, Daboia russelii
[9] = Protective activity against Naja kaouthia venom-induced mortality in Swiss albino mouse at 100 mmol, iv by measuring venom LD50 preincubated with venom for 1 hr followed by administration to mouse measured after 24 hrs (reference value: 2.82 ug); type: functional
[10] = Protective activity against Daboia russellii venom-induced mortality by measuring venom LD50 in Swiss albino mouse at 100 mmol, iv preincubated with venom for 1 hr followed by administration to mouse measured after 24 hrs (reference value: 2.28 ug); type: functional, Daboia russelii
[11] = Lipophilicity, log P of compound; type: physicochemical; conditions: octanol/water; read-out: logP
[12] = Protective activity against Naja kaouthia venom-induced mortality in Swiss albino mouse at 100 mmol, iv administered immediately after venom injection measured after 24 hrs relative to untreated control; type: functional
[13] = Protective activity against Naja kaouthia venom-induced mortality in Swiss albino mouse at 100 mmol, iv by measuring venom LD50 administered immediately after venom injection measured after 24 hrs (reference value: 2.82 ug); type: functional
Daboia russelii [14] = assay: as §2; type: functional
Naja kaouthia [15] = system: Naja kaouthia
Description: Protective activity against Naja kaouthia venom-induced mortality in Swiss albino mouse at 100 mmol, iv by measuring venom LD50 administered immediately after venom injection measured after 24 hrs (Rvb = 2.82 ug)

Daboia russelii [16] = system: Daboia russelii
Naja kaouthia [17] = system: Naja kaouthia; remark: listed apart in the source
Daboia russelii [18] = assay: as §1; type: functional
Daboia russelii [19] = assay: Protective activity against Daboia russellii venom-induced mortality in iv dosed Swiss albino mouse administered immediately after venom injection relative to untreated control; type: functional, organism-based
[20] = Protective activity against Daboia russellii venom-induced mortality in iv dosed Swiss albino mouse administered 30 mins after venom injection relative to untreated control; type: functional, Daboia russelii

Compound | fold change (FC) [1] | fold change (FC) [2] | MHC [3] [µg] | fold change (FC) [4] | fold change (FC) [5] | fold change (FC) [6] | MHC [7] [µg] | LD50 [8] [µg] | LD50 [9] [µg] | LD50 [10] [µg] | logP [11] | fold change (FC) [12] | LD50 [13] [µg] | LD50 (Daboia russelii [14]) | LD50 (Naja kaouthia [15]) | LD50 (Daboia russelii [16]) | LD50 (Naja kaouthia [17]) | MHC (Daboia russelii [18]) | Activity (Daboia russelii [19]) | Activity [20] [%]
O=Cc1cccc(O)c1 [3-HYDROXYBENZALDEHYDE] | 1 | 1.25 | 30 | 2.6 | 6 | 3 | 15 | – | – | – | – | – | – | – | – | – | – | – | – | –
COc1cc(C=O)ccc1O [VANILLIN] | 3.2 | 3.75 | 20 | 9.8 | 4 | 1 | 5 | 150 | 9 | 22 | 1.87 | 2 | 10 | – | – | – | – | – | – | –
CCOc1cc(C=O)ccc1O [ETHYL VANILLIN] | 1 | 2.5 | 15 | 4.9 | 3 | 2 | 10 | 100 | 3 | 11 | 1.81 | 2 | 10 | – | – | – | – | – | – | –
COc1ccc(C=O)cc1 | – | – | 15 | – | 3 | 1 | 5 | – | – | – | 1.19 | – | – | inactive | inactive | inactive | inactive | – | – | –
COc1ccc(O)c(C=O)c1 | 2.1 | 2.5 | 20 | 4.9 | 4 | 2 | 10 | 100 | 6 | 11 | 1.93 | 1.6 | 8 | – | – | – | – | – | – | –
CCCCCCCOc1ccc(C=O)c(O)c1 | 1 | – | 5 | 2.6 | 1 | – | – | – | 3 | 6 | – | – | – | inactive | inactive | – | – | inactive | – | –
COc1ccccc1C=O [2-METHOXYBENZALDEHYDE] | 2.1 | 2.5 | 10 | 8 | 2 | 1 | 5 | 100 | 6 | 18 | 1.15 | – | – | – | inactive | – | – | – | – | –
COc1cccc(OC)c1 [1,3-DIMETHOXYBENZENE] | – | – | 10 | – | 2 | 1 | 5 | – | – | – | 1.44 | – | – | inactive | inactive | inactive | inactive | – | – | –
COc1ccc(/C=N/O)c(OC)c1 | 1 | 1.25 | 5 | 2.6 | 1 | – | – | 50 | 3 | 6 | – | – | – | – | inactive | – | – | inactive | – | –
CCOc1ccc(C=O)c(O)c1 | – | – | 5 | – | 1 | – | – | – | – | – | – | – | – | inactive | inactive | inactive | inactive | inactive | – | –
Oc1ccccc1O [CATECHOL] | – | – | 25 | – | 5 | 3 | 15 | – | – | – | 1.48 | – | – | inactive | inactive | inactive | inactive | – | – | –
O=Cc1ccc(O)cc1 [4-HYDROXYBENZALDEHYDE] | 1 | 1.25 | 15 | 2.6 | 3 | 2 | 10 | 50 | 3 | 6 | 1.15 | – | – | – | inactive | – | – | – | – | –
Oc1ccccc1 [PHENOL] | – | – | 10 | – | 2 | 1 | 5 | – | – | – | 1.76 | – | – | inactive | inactive | inactive | inactive | – | – | –
COc1cccc(C=O)c1 | 3.2 | 2.5 | 15 | 11.2 | 3 | 1 | 5 | 100 | 9 | 25 | 1.15 | – | – | – | inactive | – | – | – | – | –
COc1ccc(OC)cc1 [1,4-DIMETHOXYBENZENE] | – | – | 10 | – | 2 | 1 | 5 | – | – | – | 1.47 | – | – | inactive | inactive | inactive | inactive | – | – | –
O=Cc1cccc(O)c1O | 1 | – | 40 | 2.1 | 8 | 2 | 10 | – | 3 | 5 | 1.19 | – | – | inactive | inactive | – | – | – | – | –
O=Cc1cc(O)ccc1O | 1 | 1.25 | 35 | 2.1 | 7 | 3 | 15 | 50 | 3 | 5 | 1.53 | – | – | – | inactive | – | – | – | – | –
COc1ccc(C=O)c(OC)c1 | 3.2 | 2.5 | 25 | 9.8 | 5 | 2 | 10 | 100 | 9 | 22 | 0.97 | 1.6 | 8 | – | – | – | – | – | Active | 40
O=Cc1ccc(O)c(O)c1 [PROTOCATECHUALDEHYDE] | 1 | 1.25 | 60 | 2.6 | 12 | 4 | 20 | 50 | 3 | 6 | 2 | – | – | – | inactive | – | – | – | – | –
COc1ccccc1 [ANISOLE] | – | – | 10 | – | 2 | 1 | 5 | – | – | – | 1.44 | – | – | inactive | inactive | inactive | inactive | – | – | –
COc1ccc(C=O)cc1O [ISOVANILLIN] | – | – | 10 | – | 2 | 2 | 10 | – | – | – | – | – | – | inactive | inactive | inactive | inactive | – | – | –
CCCOc1ccc(C=O)c(O)c1 | – | – | 5 | – | 1 | – | – | – | – | – | – | – | – | inactive | inactive | inactive | inactive | inactive | – | –
Oc1ccc(O)cc1 [HYDROQUINONE] | – | – | 20 | – | 4 | 2 | 10 | – | – | – | 1.48 | – | – | inactive | inactive | inactive | inactive | – | – | –
Oc1cccc(O)c1 [RESORCINOL] | – | – | 10 | – | 2 | 2 | 10 | – | – | – | 1.48 | – | – | inactive | inactive | inactive | inactive | – | – | –
COc1ccccc1OC [1,2-DIMETHOXYBENZENE] | – | – | 10 | – | 2 | 1 | 5 | – | – | – | 1.44 | – | – | inactive | inactive | inactive | inactive | – | – | –
